Paper PMC9127186, “Molecular Basis Underlying Hepatobiliary and Renal Excretion of Phenolic Acids of Salvia miltiorrhiza Roots (Danshen)” (Frontiers in Pharmacology, 2022)

Tests used:
[1] = target: T1, rat Bsep (Rattus norvegicus, UniProt O70127); experiment: Vesicular transport assay, inside-out membrane vesicles expressing rat Bsep; conditions: 10 min
T1 sequence (O70127 1-1321): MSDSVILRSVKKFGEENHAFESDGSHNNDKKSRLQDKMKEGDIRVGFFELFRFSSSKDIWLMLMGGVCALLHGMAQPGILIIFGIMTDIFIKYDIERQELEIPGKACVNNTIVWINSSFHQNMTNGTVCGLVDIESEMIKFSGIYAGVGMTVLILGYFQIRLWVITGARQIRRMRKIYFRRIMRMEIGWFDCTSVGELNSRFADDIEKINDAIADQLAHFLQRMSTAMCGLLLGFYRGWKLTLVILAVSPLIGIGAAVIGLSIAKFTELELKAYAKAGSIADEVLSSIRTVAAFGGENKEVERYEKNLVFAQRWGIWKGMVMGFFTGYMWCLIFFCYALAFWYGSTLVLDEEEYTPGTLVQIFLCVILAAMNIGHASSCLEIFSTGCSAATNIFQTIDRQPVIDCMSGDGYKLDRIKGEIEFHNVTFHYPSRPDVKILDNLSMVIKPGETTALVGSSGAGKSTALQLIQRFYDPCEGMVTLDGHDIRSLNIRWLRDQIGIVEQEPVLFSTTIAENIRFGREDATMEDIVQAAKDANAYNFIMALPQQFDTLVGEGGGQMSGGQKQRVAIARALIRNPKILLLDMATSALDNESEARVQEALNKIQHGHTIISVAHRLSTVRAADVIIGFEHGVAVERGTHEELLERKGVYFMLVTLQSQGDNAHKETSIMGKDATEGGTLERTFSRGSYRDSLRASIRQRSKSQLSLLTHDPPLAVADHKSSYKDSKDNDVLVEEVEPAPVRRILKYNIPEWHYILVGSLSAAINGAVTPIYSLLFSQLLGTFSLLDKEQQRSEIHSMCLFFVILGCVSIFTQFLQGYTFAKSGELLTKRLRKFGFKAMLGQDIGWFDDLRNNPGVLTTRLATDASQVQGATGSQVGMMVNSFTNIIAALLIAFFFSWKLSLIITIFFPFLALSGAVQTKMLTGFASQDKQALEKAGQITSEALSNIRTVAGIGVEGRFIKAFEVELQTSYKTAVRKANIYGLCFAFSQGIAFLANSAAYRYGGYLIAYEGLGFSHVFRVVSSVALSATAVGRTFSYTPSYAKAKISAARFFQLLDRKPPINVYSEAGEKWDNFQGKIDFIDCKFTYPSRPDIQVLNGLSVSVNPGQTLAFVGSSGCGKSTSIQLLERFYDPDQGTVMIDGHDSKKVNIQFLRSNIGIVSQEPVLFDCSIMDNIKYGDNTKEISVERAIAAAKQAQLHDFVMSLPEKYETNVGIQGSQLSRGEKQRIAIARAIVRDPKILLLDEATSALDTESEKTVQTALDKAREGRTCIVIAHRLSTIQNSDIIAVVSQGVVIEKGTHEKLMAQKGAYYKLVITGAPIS
Protocol: Inside-out membrane vesicles (5 mg protein/mL), prepared from insect cells expressing human multidrug resistance-associated protein (MRP) 2, MRP3, MRP4, breast cancer resistance protein (BCRP), bile salt export pump (BSEP), and multidrug resistance protein (MDR) one and rat Mrp2, Mrp4, Bcrp, and Bsep, and vesicles (5 mg protein/mL; prepared from the insect cells expressing no ABC transporter; serving as negative control) were obtained from Genomembrane (Kanazawa, Japan).
The test Danshen compounds at 100 µM final concentration were separately incubated with the membrane vesicles for 10 min. Buffer C (50 mM MOPS-tris, 70 mM KCl, 7.5 mM MgCl2, pH 7.0) was used for preincubation and incubation, while buffer D (40 mM MOPS-tris, 70 mM KCl, pH 7.0) was used for vesicle washing. The transport rate (pmol/mg protein/min) of the test Danshen compound was calculated using Equation (2): Transport=(CV×VV)/T/WV (2) where C V, V V, T, and W V represent concentration of the compound in vesicular lysates supernatant (μM), volume of the lysates (μL), incubation time (10 min), and amount of vesicle protein amount per well (0.05 mg), respectively. Differential transport of the test Danshen compound between ATP-containing vesicles and AMP-containing vesicles was defined as net transport ratio (TransportATP/TransportAMP ratio). […] All the incubation samples were analyzed by liquid chromatography/mass spectrometry.

[2] = target: T2, human OCT1 (Homo sapiens, UniProt O15245); experiment: Cellular transport assay, HEK-293 cells expressing human OCT1; conditions: Danshen phenolic acid at 100 μM final concentration, 10 min; human OCT1-transfected vs mock cells
T2 sequence (O15245 1-554): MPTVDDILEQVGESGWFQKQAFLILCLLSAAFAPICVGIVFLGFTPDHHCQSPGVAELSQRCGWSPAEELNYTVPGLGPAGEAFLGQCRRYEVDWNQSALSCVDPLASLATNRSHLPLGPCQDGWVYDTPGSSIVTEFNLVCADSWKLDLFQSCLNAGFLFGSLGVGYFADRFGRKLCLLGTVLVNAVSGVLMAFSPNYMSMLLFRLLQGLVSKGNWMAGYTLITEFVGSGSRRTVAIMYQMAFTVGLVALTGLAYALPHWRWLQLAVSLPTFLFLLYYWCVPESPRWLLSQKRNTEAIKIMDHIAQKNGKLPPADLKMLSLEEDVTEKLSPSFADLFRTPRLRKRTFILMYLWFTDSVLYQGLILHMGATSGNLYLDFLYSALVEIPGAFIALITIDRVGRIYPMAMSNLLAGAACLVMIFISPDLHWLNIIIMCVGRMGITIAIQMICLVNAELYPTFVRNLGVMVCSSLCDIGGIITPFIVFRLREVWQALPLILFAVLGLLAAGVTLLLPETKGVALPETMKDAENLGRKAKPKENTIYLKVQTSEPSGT

[3] = Danshen phenolic acid at 100 μM final concentration, rat Bsep vesicles

Compound | TransportATP/TransportAMP ratio (net transport ratio) [1, 3] | TransportTC/TransportMC ratio (net transport ratio) [2] | TransportATP/TransportAMP ratio (net transport ratio) ([1]; rat, 100 μM, pH 7)
O=C(O)Cc1c(/C=C/C(=O)O[C@H](Cc2ccc(O)c(O)c2)C(=O)O)ccc(O)c1O [Salvianolic acid D, salvianolic acid D] | 1.09 ± 0.23 | 1.04 ± 0.24 | 
O=C(/C=C/c1ccc(O)c2c1[C@H](C(=O)O)[C@@H](c1ccc(O)c(O)c1)O2)O[C@H](Cc1ccc(O)c(O)c1)C(=O)O [Lithospermic acid, lithospermic acid] | 1.69 ± 0.37 | 1.56 ± 0.26 | 
salvianolic acid B | 1.52 ± 0.67 | 1.03 ± 0.07 | 
O=C(O)c1ccc(O)c(O)c1 [Protocatechuic acid, protocatechuic acid] | 1.13 ± 0.17 | 1.09 ± 0.33 | 
O=C(/C=C/c1ccc(O)c(O)c1/C=C/c1ccc(O)c(O)c1)O[C@H](Cc1ccc(O)c(O)c1)C(=O)O [Salvianolic acid A, salvianolic acid A] |  |  | 0.75 ± 0.12
O=C(/C=C/c1ccc(O)c(O)c1)O[C@H](Cc1ccc(O)c(O)c1)C(=O)O [Rosmarinic acid, rosmarinic acid] |  |  | 1.39 ± 0.36
